Test results as given in PMC8899577, “Targeting the anti-apoptotic Bcl-2 family proteins: machine learning virtual screening and biological evaluation of new small molecules” (Theranostics, 2022).

Columns and labels:
A375 melanoma xenografts = assay: In vivo tumor growth, A375 xenografts; settings: i.p. 100 mg/kg, 5 days/week
Experimental: (§1) All procedures involving mice and their care were authorized and certified by the decree no. 67/97A of the Italian Minister of Health and protocol 2560/97 of the Rome Health Service Unit (ASL RMB). Regina Elena National Cancer Institute approved all the procedures involving animals. 5 x 10^6 U937 (in 50% Matrigel, Corning, NY, USA) or A375 cells were subcutaneously injected in the right flank of 6-8-week-old female immunodeficient athymic CD1 nude mice. IS21 was dissolved in 10% DMSO, 30% PEG400 and 60% NaCl (vehicle). Intraperitoneal treatment of vehicle or IS21 (8 mice for each group) every 24 h started when tumors reached the palpability (6 days for U937 and 7 days for A375 cells). […] Animals were observed daily, weighted two times/week and tumor volume (mm^3) calculated as length × width^2 × π/6. At the end of the treatment the tumors were collected and weighed.
In particular, mice injected with A375 melanoma cells were treated with vehicle or with IS21 (100 mg/kg, 5 days/week) for three weeks.
Experiments were repeated
426 twice. 4 animals/group. * p < 0.01, ** p < 0.001, *** p < 0.0001. (B) Representative images of
427 explanted tumors of two independent experiments. The scale bar represents 1 cm. (C) Analysis of
(D) Anal ysis of mice weight after the in vivo ex periment perform ed
430 as reported in (A). ( A,C, D) D ata are report ed as mean ± SD of two indep endent ex periments. […]

U937 xenografts = assay: In vivo tumor growth, U937 xenografts; parameters: species or system athymic CD1 nude mice
Experimental: as §1
Based on pharmacokinetic analysis, we next evaluated the effect of IS21 on in vivo tumor growth of leukemic and melanoma derived xenografts. To this aim, U937 were injected subcutaneously and treated for two weeks with vehicle or with IS21 (70 mg/kg or 100 mg/kg, 5 days/week).
Figure 9 Analysis in vivo of the effect of IS21 on both leukemia and melanoma models. Analysis of in vivo tumor growth in nude mice injected with (A) U937 and (B) A375 cells and treated with vehicle or with IS21 at the indicated concentrations for (A) two or (B) three weeks. Experiments were repeated twice. * p < 0.05, *** p < 0.0002, **** p < 0.0001.

CCCCCOc1ccc(C2/C(=C(\O)c3ccc4c(c3)CC(C)O4)C(=O)C(=O)N2c2nnc(SCc3ccc(Cl)cc3)s2)cc1OCC (stereo not shown) [IS21]
day after cell injection from which A375 tumor growth is reduced (A375 melanoma xenografts; three weeks): 22 days | in vivo tumor growth of A375 (A375 melanoma xenografts; three weeks): strongly reduced | tolerability of treatment (weight loss, diet consumption, postural and behavioral changes) (A375 melanoma xenografts; tumor-bearing nude mice): highly tolerated | delay of tumor growth (U937 xenografts; U937, 100 mg/kg until day 22, compared with control or 70 mg/kg): about 11 days | growth of U937 xenografts (U937 xenografts; i.p. 70 mg/kg or 100 mg/kg, 5 days/week, two weeks): reduced significantly | day after cell injection from which U937 xenograft growth is significantly reduced (U937 xenografts; i.p. 70 mg/kg, 5 days/week, two weeks): 19 days | day after cell injection from which U937 xenograft growth is significantly reduced (U937 xenografts; i.p. 100 mg/kg, 5 days/week, two weeks): 16 days
